Here are results for one compound from patent US20070154538A1, “Removal of fat cells by PDT” (CeramOptec GmbH, priority 2005, published 2007).

This data set in a line: solubility of the photosensitizer in triglycerides. The class given is physicochemical. The settings on record: the main component of adipose cells.

In the case of `Oc1cccc(-c2c3nc(c(-c4cccc(O)c4)c4ccc([nH]4)c(-c4cccc(O)c4)c4nc(c(-c5cccc(O)c5)c5ccc2[nH]5)CC4)C=C3)c1` [mTHPC, temoporfin], the “solubility level in the triglycerides” value is on record as “low solubility level”.
